Results published in patent US20210186947A1, “TOMM6-INTERACTING EXTRACTS AND COMPOUNDS FOR USE IN THE TREATMENT AND PROPHYLAXIS OF NERVOUS SYSTEM DISEASES, ATHEROSCLEROSIS, HEPATITIS B INFECTION AND HUMAN PAPILLOMA VIRUS (HPV) INFECTION” (ETH ZURICH, priority 2018, published 2021).

Tests used:
[1] = mouse, in vivo, po, 100 mg/kg/day
[2] = tested on: hyperphosphorylated PHF-Tau; test: Hippocampal hyperphosphorylated PHF-Tau in Tg2576 mice subjected to CUMS, binding assay with [125I]-labeled AT8 antibody; type: in vivo; details: 15 months-old Tg2576 mice, 3 months of CUMS, treated during CUMS; compounds 10 mg/kg/d
Tomm6 = target: T1, Tomm6 (Mus musculus, UniProt Q9CQN3); test: Immunoblot detection of hippocampal Tomm6 protein in treated Tg2576 mice; type: in vivo
T1 construct: hippocampi were isolated from 5-10 aged Tg2576 mice, pulverized under liquid nitrogen and solubilized; from tissue; host or cells: hippocampus of Tg2576 mice
T1 sequence (Q9CQN3 1-74): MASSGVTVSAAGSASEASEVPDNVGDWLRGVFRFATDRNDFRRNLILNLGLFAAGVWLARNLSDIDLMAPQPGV

[3] = tested on: angiotensin II AT2 receptor (AT2R, AGTR2); test: AT2R protein aggregation assay in HEK cells, immunoblot; type: cell-based, human; details: 10 microM for 72 h
Protocol: Proteins were also extracted from yeast cells and HEK cells expressing the indicated protein (i.e. HBsAg or AGTR2) as described above. Neuronal cell loss and hyperphosphorylated Tau in hippocampi of 15 months-old Tg2576 mice subjected to the CUMS protocol for 3 months was determined with crude homogenates of dissected hippocampi by direct binding assay with neuron-specific [^125I]-labeled anti-NeuN antibody (MAB377, clone A60, EMD Millipore, Merck KGaA, Darmstadt, Germany) and [^125I]-labeled AT8 antibody similarly as described (AbdAlla et al., J. Biol. Chem. 284, 6554-6565 (2009)).
In the second non-Abeta-based protein aggregation assay, different plant extracts were tested in a mammalian cell system, which analyzed the protein aggregation of the angiotensin II AT2 receptor (AT2R, AGTR2) protein in human embryonic kidney (HEK) cells. The system has physiological relevance because this cellular system is capable to reproduce AT2R protein aggregation, which also occurs in brains of AD patients and AD animal models (AbdAlla et al., J. Biol. Chem. 284, 6554-6565 (2009); AbdAlla et al., J. Biol. Chem. 284, 6566-6574 (2009)). The AT2 receptor in human embryonic kidney (HEK) cells forms stable dimers/oligomers under pro-oxidant conditions, which are resistant to urea-containing reducing SDS-PAGE (FIG. 2A, and AbdAlla et al., J. Biol. Chem. 284, 6566-6574 (2009)). […]

[4] = tested on: hippocampal neuronal cell bodies (NeuN); test: Hippocampal neuronal loss in Tg2576 mice subjected to CUMS, binding assay with [125I]-labeled anti-NeuN antibody; type: in vivo; details: 15 months-old Tg2576 mice, 3 months of CUMS, treated during CUMS; compounds 10 mg/kg/d
Agtr2 (AT2R) = test: Immunoblot detection of Agtr2 in PBMCs of aged rats subjected to CUMS; type: in vivo, rats (Sprague Dawley); details: 4 weeks of CUMS, treated during CUMS
[5] = Toxic adverse effects during 3 months of treatment of Tg2576 AD mice; type: in vivo; details: daily dose of 10 mg/kg
[6] = Measurement of serum level in dogs by HPLC; type: in vivo, German shepherd dogs
Protocol: (§1) Serum concentrations of alizarin were determined with serum isolated from the blood of male and female German shepherd dogs (age: 8-9 months) taken at different time points (0.5 h, 1 h, 2 h, 4 h, 6 h, 8 h, 24 h) after oral intake of the indicated doses for 4 weeks. In addition, serum concentrations of alizarin (Compound-1) were determined in male and female Sprague Dawley rats (body weight: 200-250 g) treated for 1 month and/or three months by oral gavage of alizarin at a once daily dose of 100 mg/kg, 50 mg/kg, 25 mg/kg and 12.5 mg/kg. Serum proteins were removed by acetonitrile precipitation, and alizarin was extracted by chloroform before separation on an HPLC-C18 column (Poroshell 120 EC-C18, 3.0×50 mm, Agilent) with an HPLC system (Agilent 1100 Series) and detection at OD245 nm. For quantitative determination of Compound-7 and Compound-10F in rat and dog serum, serum proteins were also removed by acetonitrile precipitation before HPLC analysis as detailed above and detection at OD254 nm.

[7] = Measurement of serum level in rats by HPLC; type: in vivo, Sprague Dawley rats
Protocol: as §1

aggregated Agtr2 = test: ELISA of aggregated Agtr2 protein in PBMC of rats subjected to CUMS; type: in vivo, rats (Sprague Dawley); details: aged rats, 4 weeks of CUMS, treated during CUMS
Source text: More preferably, AGTR2 aggregation is detected with a sandwich ELISA. To this end the following steps can be performed: • (i) The first step of the sandwich ELISA is the immobilization of AGTR2-specific capture antibodies (any species, e.g. rabbit, rat, mouse, cameloid; serum, affinity-enriched; F(ab)2 fragments, nanobodies as generated in step (vi)) on an ELISA plate (Nunc Maxisorb), 0.1-10 microg/well, preferably 1-5 microg, more preferably, 1-2 microg in 100 microL of a suitable buffer (e.g. 0.1 M sodium acetate, 0.1 M NaCl, pH 5.5; or 15.9 mM Na2CO3, 35 mM NaHCO3, pH 9.6) by overnight incubation at 4° C. […] After the incubation time, unbound antibody is removed by washing steps (without Tween 20). • (v) Bound antibody is detected by a substrate reaction, which includes the addition of 50-400 microL, preferably 100-200 microL of substrate buffer (18 microL of 30% H2O2 added to 10.5 ml ABTS solution (22 mg ABTS dissolved in 100 ml of 50 mM sodium citrate, pH 4.0-pH 4.5). Any other substrate (e.g. is also feasible. After an incubation time of 1 min-5 h at 4° C.-37° C., preferably 30 min-1 h, more preferably 30 min at 37° C., optical density is measured at 410 nm, e.g. on a plate reader (Versa Max, Molecular Devices). […]

[8] = tested on: hyperphosphorylated PHF tau; test: Hippocampal hyperphosphorylated PHF tau in aged rats subjected to CUMS, immunoblot; type: in vivo, rats (Sprague Dawley); details: 4 weeks of CUMS, 10 mg/kg/d during CUMS

Row | Structure (SMILES) | daily food intake / food consumption [1] | hippocampal content of hyperphosphorylated PHF-Tau [2] | hippocampal protein content of Tomm6 (Tomm6; aged Tg2576 mice treated for 6 months) | aggregation of the AT2 receptor [3] | hippocampal neuronal loss [4] | PBMC content of monomeric Agtr2 (Agtr2 (AT2R)) | accumulation of aggregated Agtr2 in PBMCs (Agtr2 (AT2R)) | toxic adverse effects [5] | hippocampal Tomm6 protein content (Tomm6; Tg2576 AD mice subjected to the CUMS protocol, treated during CUMS (10 mg/kg/d)) | oral bioavailability / serum concentrations after oral intake [6] | oral bioavailability / serum concentrations after oral intake ([7]; rats) | oral doses required to achieve equivalent peak serum concentrations, higher in rats compared to dogs ([7]; rats vs dogs) | time of peak serum concentration ([7]; rats, repeated once daily oral intake of 20 mg/kg/d) [h] | PBMC content of aggregated Agtr2 protein (ELISA) (aggregated Agtr2) | hippocampal accumulation of hyperphosphorylated PHF tau [8]
1 | O=C(O)c1c(O)c(O)c2c(c1O)C(=O)c1ccccc1C2=O [Compound-2, purpurin-3-carboxylic acid] | did not significantly alter | inhibited hippocampal PHF-Tau hyperphosphorylation | substantially increased | inhibited the aggregation of the AT2 receptor | prevented the CUMS-induced hippocampal neuronal loss | – | – | – | – | – | – | – | – | – | –
2 | Cc1nc(CO)cc(-c2ccc(F)cc2)c1C(N)=O [Compound-10F, 4-(4-fluorophenyl)-6-(hydroxymethyl)-2-methyl-pyridine-3-carboxamide] | – | significantly inhibited the hippocampal accumulation of hyperphosphorylated PHF tau | – | – | retarded the CUMS-induced hippocampal neuronal loss | significantly higher compared to untreated controls | prevented the accumulation of aggregated Agtr2 | did not show any detectable toxic adverse effects | significantly higher | had oral bioavailability | had oral bioavailability | approximately 10 fold | 1 | significantly retarded the CUMS-induced accumulation of Agtr2 aggregates | prevented the hippocampal accumulation of hyperphosphorylated PHF tau
